Like-named read-outs stand apart in the source and are kept apart here.
Tests used:
[1] = system: ENO1 heterozygous cells (D502-MG and U343); assay: Cell growth / toxicity in ENO1 heterozygous GBM cells; format: cell-based, human
Experimental: (§1) For crystal violet assays, 10,000 cells were seeded in a 6-well plate for each time point. At the indicated time point, cells were fixed with 10% formalin and stained with crystal violet solution for 1 hour. Dye extraction was performed using 10% acetic acid solution and absorbance was read at 590 nm. Cell titer Glo® experiments were performed as indicated by the manufacturer. 1000 cells/well were plated in a 96 well plate for each time point and luminescence readings were taken every 24 hours. All experiments were performed in triplicate.
(§2) Structure and purity were verified by NMR. […] Given the instability of the compound, media was replaced every 5 days and fresh inhibitor added with fresh media.
(§3) Cell growth of shRNA- or PhAH-treated cell lines was assayed either through crystal violet staining or using the Promega CellTiter-Glo proliferation kit (Roche) or alternatively, in vivo, by measuring confluence with the IncuCyte (Essen BioScience). […] Dye extraction was performed using 10% acetic acid solution, and absorbance was read at 590 nm. CellTiter-Glo experiments were performed according to the manufacturer's instructions; 10^3 cells/well were plated in a 96-well plate for each time point, and luminescence readings were taken every 24 h. […] Soft agar (anchorage-independent) growth was monitored in 6-well plates seeded with 10^4 cells of the indicated genotype. […]

[2] = system: ENO1-null cells (D423-MG, Gli56); assay: Cell growth / toxicity in ENO1-null GBM cells; format: cell-based, human; conditions: for growth of ENO1-null cells: doxycycline-inducible TRIPZ, D423-MG
Experimental: as §1, §2
(§4) Cell growth of shRNA- or PhAH-treated cell lines was assayed either through crystal violet staining or using the Promega CellTiter-Glo proliferation kit (Roche) or alternatively, in vivo, by measuring confluence with the IncuCyte (Essen BioScience). Growth curves using the IncuCyte were generated by imaging every 2 hours with quadruplicate replicates. For crystal violet assays, 10^4 cells were seeded in a 6-well plate for each time point. At the indicated time point, cells were fixed with 10% formalin and stained with crystal violet solution for 1 h. Dye extraction was performed using 10% acetic acid solution, and absorbance was read at 590 nm. CellTiter-Glo experiments were performed according to the manufacturer's instructions; 10^3 cells/well were plated in a 96-well plate for each time point, and luminescence readings were taken every 24 h. All experiments were performed in triplicate. Soft agar (anchorage-independent) growth was monitored in 6-well plates seeded with 10^4 cells of the indicated genotype. The medium contained DMEM with 10% FBS; the top agar contained 0.4% low melting agarose, while the bottom agar contained 1% low melting agarose. Growth was monitored by fluorescence (GFP) and after 28 days colonies were stained with iodonitrotetrazolium chloride (Sigma-Aldrich) and counted.
Structure and purity were verified by NMR. […]

[3] = system: D423-MG ENO1-null cells; assay: Soft agar colony formation assay; format: cell-based, human; conditions: vs shNT
Experimental: Anchorage-independent growth assays were performed in duplicate or triplicate in 6 well plates. 10^4 of indicated cells per well were seeded in DMEM+10% FBS containing 0.4% low-melting agarose on the top of bottom agar containing 1% low-melting agarose DMEM+10% FBS. After 14-21 days, colonies were stained with iodonitrotetrazoliumchloride (Sigma-Aldrich) and counted.
as §4, with “At the indicated time point, cells were fixed with 10% formalin and stained with crystal violet solution for 1 h.” left out, “All experiments were performed in triplicate.” left out, “The medium contained DMEM with 10% FBS; the top agar contained 0.4% low melting agarose, while the bottom agar contained 1% low melting agarose.” left out

[4] = system: D423-MG cells; assay: Orthotopic brain tumor formation; format: in vivo, SCID mice; conditions: D423-MG injected intracranially; vs shNT
Experimental: Injection of D423-MG cells was performed as previously described (in Zheng et al., 2008) SCID mice (Charles River) aged 6-12 weeks were placed into stereotactic apparatus equipped with a Z axis (Stoelting). A hole was bored in the skull 0.5 mm anterior and 3.0 mm lateral to the bregma using a dental drill. One hundread thousand cells in Hanks Buffered Salt Solution were injected into the right caudate nucleus 3 mm below the surface of the brain using a 10-μl Hamilton syringe with an unbeveled 30 gauge needle. The scalp was closed using a 9-mm Autoclip Applier. Animals were followed daily for the development of neurological deficits.
The in vivo tumorigenic potential of D423-MG cells transduced with non-targeting hairpin or shENO2-3 delivered through pGIPZ was determined as previously described (Zheng et al., 2008). SCID mice (Charles River) under deep anesthesia were placed into a stereotactic apparatus equipped with a z axis (Stoelting). Then, 3×10^5 cells were injected intracranially into the right caudate nucleus 3 mm below the surface of the brain, using a 10-μl Hamilton syringe. The animals were followed daily for development of neurological deficits. All mice experiments were performed with the approval of the Harvard Cancer Center and Dana-Farber Cancer Institute Institutional Animal Care and Use Committee.

[5] = system: enolase 2 protein; assay: shRNA knockdown of ENO2 expression (western blot); format: cell-based, human; conditions: pGIPZ vector; D423-MG and D502-MG; vs shNT
From the text: Two of these hairpins were in the pLKO.1 vector (ShENO2-1 and shENO2-2) and the remaining two were in the Expression Arrest GIPZ (shENO2-3) and TRIPZ (shENO2-4) shRNAmir vectors (Open Biosystems, Huntsville, Ala.). The hairpin in the GIPZ vector was cloned into the TRIPZ vector using a protocol provided by the manufacturer. The TRIPZ vector is a doxycycline inducible system with a Red fluorescent protein reporter which is only expressed upon doxycycline induction. Recombinant lentivirus was produced by transient transfection of 293T cells following a standard protocol. Briefly, 72 μg of the shRNA plasmid, 54 μg of Delta 8.9 and 18 μg of VSVG plasmids were transfected using Fugene® (Roche, Indianapolis, Ind.) into 293T cells plated in 245 mm2 dishes. Viral supernatant was collected 72 hours after transfection, concentrated by centrifugation at 23,000 rpm and resuspended in cell growth medium. For transduction, viral solutions were added to cell culture medium containing 4 μg/mL polybrene; 48 hours after infection cells were selected using 2 μg/mL puromycin and tested for ENO2 knockdown by western blot.
The hairpin in the GIPZ vector was cloned into the TRIPZ vector using a protocol provided by the manufacturer. The TRIPZ vector is a doxycycline-inducible system with a red fluorescent protein reporter that is expressed only upon doxycycline induction. […]

[6] = system: ENO1-null D423-MG cells; assay: Relative growth with receptor tyrosine kinase inhibitors or rapamycin; format: cell-based, human; conditions: combination of sorafenib, lapatinib and PHA665752
From the text: Given the instability of the compound, the medium was replaced every 5 days and fresh inhibitor added with fresh medium.

[7] = biological target: enolase; conditions: cited from earlier work
[8] = Table 5, cited from earlier work
[9] = system: ENO1 WT GBM cells and normal astrocytes; assay: Cell growth / toxicity in ENO1 WT GBM cells and normal astrocytes; format: cell-based, human
Experimental: as §1, §2, §3

[10] = biological target: yeast enolase (Saccharomyces cerevisiae, UniProt P00924); conditions: read-out: inhibitory constant on yeast enolase; Anderson et al., 1984; cited from earlier work
yeast enolase, sequence (P00924 whole entry): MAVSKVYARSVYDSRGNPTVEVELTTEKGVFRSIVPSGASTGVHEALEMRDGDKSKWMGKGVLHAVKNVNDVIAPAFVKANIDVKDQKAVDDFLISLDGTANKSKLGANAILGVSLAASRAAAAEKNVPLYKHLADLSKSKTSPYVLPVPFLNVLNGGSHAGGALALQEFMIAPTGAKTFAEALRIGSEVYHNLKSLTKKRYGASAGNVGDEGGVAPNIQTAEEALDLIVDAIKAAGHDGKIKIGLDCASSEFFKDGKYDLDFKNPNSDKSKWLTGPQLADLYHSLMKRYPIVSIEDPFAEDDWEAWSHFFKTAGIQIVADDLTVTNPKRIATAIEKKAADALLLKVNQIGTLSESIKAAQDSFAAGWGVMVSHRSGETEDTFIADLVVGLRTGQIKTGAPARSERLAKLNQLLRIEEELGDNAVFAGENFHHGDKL

[11] = system: 451 Lu cells; assay: Borrelidin growth, 451 Lu (TARS deficient); format: cell-based, human
From the text: (§5) The effect of various concentrations of Borrelidin on the growth of the four melanoma cells lines over time was also studied (FIG. 21).

[12] = system: SK-MEL-2 cells; assay: Borrelidin growth and cytotoxicity, SK-MEL-2 (TARS Het); format: cell-based, human
Experimental: as §5
To this end, the inventors ran the same live growth assay, except starting with a high confluence of SK-MEL-2 cells at time zero. Under these conditions it became apparent that concentrations of Borrelidin at or above 15 nM are cytotoxic to SK-MEL-2 cells, while lower concentrations are growth inhibitory (FIG. 22).

[13] = system: HMEL cells; assay: Borrelidin growth, HMEL (TARS WT); format: cell-based, human
From the text: as §5

[14] = system: SK-MEL-2 cells; conditions: NCI-60 database; cited from earlier work
[15] = system: SK-MEL-5 cells; assay: Borrelidin growth, SK-MEL-5 (TARS WT); format: cell-based, human
From the text: as §5

[16] = Table 4, known enolase inhibitors
[17] = Table 5, published enolase inhibitors
[18] = printed: SK-MEL-2 cell line, which is also wild-type for TARS

Question: With `CC[C@H]1/C=C/C=C/C[C@@H](C)[C@H](O)[C@@](C)(O)C(=O)[C@@H](C)[C@H](O)[C@@H](C)C(=O)[C@@H](C)[C@H](O)[C@@H](C)/C=C/C(=O)O[C@@H]2[C@H](C)[C@H](CC1)O[C@]1(CC[C@H](C)[C@H](C[C@@H](C)O)O1)[C@H]2C` [oligomycin] as the molecule, how does the “effect of oligomycin on its own” value ([1]; oligomycin 10 nM) read?
Answer: minimal effects

Question: For “5′-GGGACTGAGAACAAATCCA-3′ (expressed or natural sequence) [shENO2-4]”, which “growth of ENO1-null cells” value [2] is on record?
Answer: dramatically inhibited growth

Question: What does the source list for “5′-CGGCCTTCAACGTGATCAA-3′ (expressed or natural sequence) [shENO2-3]”?
Answer: soft agar colony formation [3]: dramatically decreased; in vivo tumorigenic properties [4]: dramatically decreased; growth of ENO1-null cells [2]: dramatically inhibited growth; cell proliferation ([2]; pGIPZ, only in the context of ENO1 genomic deletion (D423-MG)): dramatically slowed; reduction of expression of ENO2 [5]: > 70%

Question: With `CS(=O)(=O)CCNCc1ccc(-c2ccc3ncnc(Nc4ccc(OCc5cccc(F)c5)c(Cl)c4)c3c2)o1` [lapatinib] as the molecule, how does the “sensitivity of ENO1-null D423-MG cells versus ENO1 WT GBM cell lines” value [6] read?
Answer: no more sensitive

Question: Which results are given for `O=CC(OP(=O)(O)O)C(=O)O` [D-tartronate semialdehyde phosphate]?
Answer: Ki [7, 16]: 10000 nM; Ki [7, 17]: 10000 nM

Question: Which pKa [8] does the source give for `O=[N+]([O-])CCP(=O)(O)O` [(nitroethyl)phosphonate] here?
Answer: 8.5

Question: And the Ki [7, 16]?
Answer: 1000 nM

Question: And the Ki [7, 17]?
Answer: 1000 nM

Question: Which pKa [8] does the source give for `O=[N+]([O-])C(CO)CP(=O)(O)O` (centres unmarked) [(3-hydroxy-2-nitropropyl)phosphonate] here?
Answer: 8.1

Question: And the Ki [7, 16]?
Answer: 1 nM

Question: And the Ki [7, 17]?
Answer: 6 nM

Question: Which results are given for 2-fluoro-2-phosphonoacetohydroxamate?
Answer: pKa [8]: 8.1; Ki [7, 17]: 1400 nM

Question: Which pKa ([8]; listed as Phosphonoacetohydroxamate) does the source give for `O=C(CP(=O)(O)O)NO` [PhAH, phosphonoacetohydroxamate] here?
Answer: 10.2

Question: What about the “concentration above which PhAH has more than minimal effect on growth” value [9] of the same molecule?
Answer: higher than 50 μM

Question: What about the Ki [10] of the same molecule?
Answer: 0.015 nM

Question: What about the “times lower doses for similar growth inhibition compared with normal human astrocytes” value [1] of the same molecule?
Answer: about 8 times

Question: What does the source list for d-(phosphonoethyl)nitrolate?
Answer: Ki [7, 16]: 14 nM; Ki [7, 17]: 14 nM

Question: For `F` [Fluoride], which “Ki (M)” value [7, 16] is on record?
Answer: Varied depending

Question: And the “Ki (M)” value [7, 17]?
Answer: Varied

Question: With `C[C@@H]1C[C@H](C)C[C@H](C)[C@@H](O)CC(=O)O[C@H]([C@@H]2CCC[C@H]2C(=O)O)C/C=C/C=C(/C#N)[C@H](O)[C@@H](C)C1` [Borrelidin] as the molecule, how does the “concentration that nearly inhibited growth” value [11] read?
Answer: 62.5 nM

Question: What about the “sensitivity to Borrelidin treatment” value [11] of the same molecule?
Answer: intermediate sensitivity

Question: What about the “effect on growth at low concentrations” value ([12]; SK-MEL-2) of the same molecule?
Answer: stalled the growth

Question: And the “lowest concentration with at least partial sensitivity” value ([12]; SK-MEL-2)?
Answer: ≥ 3.9 nM

Question: And the cytotoxic concentration ([12]; SK-MEL-2, high confluence at time zero)?
Answer: ≥ 15 nM

Question: What about the “concentration that completely inhibited growth” value ([12]; SK-MEL-2, low initial cell density) of the same molecule?
Answer: 31.25 nM

Question: And the “effect on growth at low concentrations” value [13]?
Answer: minimal to no effect

Question: And the “sensitivity of growth at the highest tested concentration” value ([13]; 62.5 nM)?
Answer: resistant

Question: What about the “Sensitivity to borrelidin (IC50) in a panel of cancer cell lines” value [14] of the same molecule?
Answer: lowest IC50

Question: And the “effect on growth at low concentrations” value ([15]; SK-MEL-5)?
Answer: minimal to no effect

Question: What about the “sensitivity of growth at 62.5 nM” value [15, 18] of the same molecule?
Answer: partially sensitive

Question: And the “sensitivity of growth at concentrations less than 31.25 nM” value [15, 18]?
Answer: largely resistant

Question: With `Cc1[nH]c(/C=C2\C(=O)Nc3ccc(S(=O)(=O)Cc4c(Cl)cccc4Cl)cc32)c(C)c1C(=O)N1CCC[C@@H]1CN1CCCC1` [PHA665752] as the molecule, how does the “sensitivity of ENO1-null D423-MG cells versus ENO1 WT GBM cell lines” value [6] read?
Answer: no more sensitive

Question: Which results are given for `NC=C(OP(=O)(O)O)C(=O)O` [3-aminoenolpyruvate-2-phosphate]?
Answer: Ki [7, 16]: 100 nM; Ki [7, 17]: 100 nM
